From ChEMBL document CHEMBL1126375, “Synthesis of chiral phosphorus mustards derived from serine” (Bioorg Med Chem Lett, 1992)
Active and inactive are the calls of the source. The calls are words filed in the database; no cut-off is given here.

Experiments:
Tumor cell line = test: Compound was tested for in vitro activity against tumor cell lines; NA=No activity; type: functional, cell-based
[1] = tested on: Human immunodeficiency virus 1; test: Compound was tested for in vitro anti-human immunodeficiency virus activity; NA=No activity; type: functional, organism-based

Compound	Activity (Tumor cell line)	Activity [1]
COC(=O)[C@H]1CO[P@](=O)(N(CCCl)CCCl)N1Cc1ccccc1	inactive	inactive
COC(=O)[C@@H]1CO[P@@](=O)(N(CCCl)CCCl)N1Cc1ccccc1 (stereo in doubt; 5a)	inactive	inactive
COC(=O)[C@@H]1CO[P@@](=O)(N(CCCl)CCCl)N1Cc1ccccc1 (stereo in doubt; 5b)	inactive	inactive
COC(=O)[C@@H]1CO[P@@](=O)(N(CCCl)CCCl)N1Cc1ccccc1 (stereo in doubt; 7a)	inactive	inactive
